According to the supplement of paper PMC10307832:

Experiments:
Assay in all cases: relative viability (nuclei count vs DMSO), 5 days (fraction); higher = more cells survive
Obatoclax + AZD7762 = compound: COC1=CC(c2cc3ccccc3[nH]2)=N/C1=C\c1[nH]c(C)cc1C [Obatoclax] + NC(=O)Nc1cc(-c2cccc(F)c2)sc1C(=O)N[C@H]1CCCNC1 [AZD7762] (partner 0.2 µM)
In short: (§1)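 Five library-drug doses in √10 steps were combined with a fixed anchor-drug dose, or a single drug was given alone, by pin tool to lung cancer cell lines in 1536-well plates the day after seeding. Nuclei were stained and counted after 5 days. Relative viability is the nuclei count in treated wells over that in vehicle wells, taken as the median of duplicate plates.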

[1] = compound: CC1=CC(=NN1)NC2=CC(=NC(=N2)/C=C/C3=CC=CC=C3)N4CCN(CC4)C + CS(=O)(=O)CCNCc1ccc(-c2ccc3ncnc(Nc4ccc(OCc5cccc(F)c5)c(Cl)c4)c3c2)o1 [Lapatinib] (partner 2 µM)
In short: as §1

Bortezomib + Luminespib = compound: CC(C)C[C@H](NC(=O)[C@H](Cc1ccccc1)NC(=O)c1cnccn1)B(O)O [Bortezomib] + CCNC(=O)c1noc(-c2cc(C(C)C)c(O)cc2O)c1-c1ccc(CN2CCOCC2)cc1 [Luminespib] (partner 0.01 µM)
In short: as §1

Bortezomib + Alpelisib = compound: CC(C)C[C@H](NC(=O)[C@H](Cc1ccccc1)NC(=O)c1cnccn1)B(O)O [Bortezomib] + Cc1nc(NC(=O)N2CCC[C@H]2C(N)=O)sc1-c1ccnc(C(C)(C)C(F)(F)F)c1 [Alpelisib] (partner 2 µM)
In short: as §1

Cell Line | relative viability (Obatoclax + AZD7762; first compound 0.01 µM) | relative viability (Obatoclax + AZD7762; first compound 0.03162 µM) | relative viability (Obatoclax + AZD7762; first compound 0.1 µM) | relative viability (Obatoclax + AZD7762; first compound 0.3162 µM) | relative viability (Obatoclax + AZD7762; first compound 1 µM) | relative viability ([1]; first compound 0.08 µM) | relative viability ([1]; first compound 0.253 µM) | relative viability ([1]; first compound 0.8 µM) | relative viability ([1]; first compound 2.53 µM) | relative viability ([1]; first compound 8 µM) | relative viability (Bortezomib + Luminespib; first compound 0.0002 µM) | relative viability (Bortezomib + Luminespib; first compound 0.000632 µM) | relative viability (Bortezomib + Luminespib; first compound 0.002 µM) | relative viability (Bortezomib + Luminespib; first compound 0.006325 µM) | relative viability (Bortezomib + Luminespib; first compound 0.02 µM) | relative viability (Bortezomib + Alpelisib; first compound 0.0002 µM) | relative viability (Bortezomib + Alpelisib; first compound 0.000632 µM) | relative viability (Bortezomib + Alpelisib; first compound 0.002 µM) | relative viability (Bortezomib + Alpelisib; first compound 0.006325 µM) | relative viability (Bortezomib + Alpelisib; first compound 0.02 µM)
NCI-H596 | 1.06 | 1.1 | 0.773 | 0.443 | 0.498 | 0.976 | 1.09 | 0.912 | 0.505 | 0.286 | 0.942 | 0.73 | 0.609 | 0.244 | 0.2 | 0.541 | 0.431 | 0.42 | 0.174 | 0.128
NCI-H647 | 0.443 | 0.606 | 0.207 | 0.253 | 0.114 | 1.02 | 1.29 | 1.08 | 0.0749 | 0.0425 | 0.198 | 0.294 | 0.136 | 0.0557 | 0.0467 | 1.07 | 1.24 | 0.881 | 0.0394 | 0.0242
NCI-H727 | 0.747 | 0.552 | 0.827 | 0.573 | 0.573 | 0.744 | 0.525 | 0.805 | 0.494 | 0.193 | 0.374 | 0.321 | 0.358 | 0.382 | 0.279 | 0.5 | 0.514 | 0.494 | 0.14 | 0.106
NCI-H838 | 0.873 | 0.933 | 0.776 | 0.889 | 0.656 | 1.03 | 1.28 | 0.831 | 0.214 | 0.091 | 0.428 | 0.302 | 0.264 | 0.124 | 0.103 | 0.977 | 0.983 | 1.13 | 0.475 | 0.134
NCI-H1355 | 0.698 | 0.709 | 0.613 | 0.735 | 0.647 | 1.11 | 1.03 | 0.944 | 0.645 | 0.422 | 0.668 | 0.657 | 0.645 | 0.233 | 0.167 | 0.826 | 0.783 | 0.685 | 0.137 | 0.126
NCI-H1395 | 0.396 | 0.395 | 0.393 | 0.375 | 0.348 | 1.22 | 1.03 | 0.932 | 0.456 | 0.275 | 0.864 | 0.761 | 0.445 | 0.334 | 0.263 | 1.15 | 1.06 | 0.387 | 0.411 | 0.393
NCI-H1437 | 1.12 | 1.16 | 1.03 | 1.08 | 0.895 | 0.853 | 0.909 | 0.833 | 0.347 | 0.105 | 1.11 | 1.07 | 1.14 | 0.165 | 0.155 | 0.951 | 0.975 | 1.05 | 0.0854 | 0.0875
NCI-H1651 | 0.488 | 0.4 | 0.421 | 0.431 | 0.439 | 0.924 | 0.941 | 0.803 | 0.313 | 0.123 | 0.868 | 0.906 | 1.07 | 0.154 | 0.114 | 1 | 0.87 | 0.748 | 0.114 | 0.0938
NCI-H1666 | 0.959 | 0.823 | 0.789 | 0.815 | 0.581 | 0.738 | 0.549 | 0.669 | 0.416 | 0.131 | 0.951 | 1.02 | 0.98 | 0.319 | 0.322 | 1.04 | 0.98 | 1.04 | 0.232 | 0.217
NCI-H1734 | 0.513 | 0.499 | 0.456 | 0.472 | 0.238 | 0.968 | 1.06 | 0.958 | 0.577 | 0.145 | 0.181 | 0.186 | 0.178 | 0.129 | 0.101 | 0.706 | 0.732 | 0.612 | 0.154 | 0.113
NCI-H1755 | 0.387 | 0.468 | 0.381 | 0.457 | 0.423 | 1.06 | 1.12 | 1.01 | 0.535 | 0.143 | 0.494 | 0.418 | 0.417 | 0.21 | 0.181 | 0.944 | 0.926 | 0.951 | 0.178 | 0.139
NCI-H1792 | 0.732 | 0.482 | 0.513 | 0.527 | 0.213 | 0.862 | 0.861 | 0.892 | 0.841 | 0.145 | 0.321 | 0.452 | 0.282 | 0.451 | 0.229 | 0.576 | 0.646 | 0.579 | 0.714 | 0.319
NCI-H1793 | 0.484 | 0.419 | 0.499 | 0.368 | 0.209 | 0.528 | 0.566 | 0.656 | 0.1 | 0.0979 | 0.184 | 0.151 | 0.171 | 0.204 | 0.127 | 0.668 | 0.589 | 0.776 | 0.475 | 0.127
NCI-H1915 | 0.697 | 0.573 | 0.648 | 0.752 | 0.562 | 0.972 | 1.01 | 0.954 | 0.453 | 0.514 | 0.724 | 0.732 | 0.721 | 0.0571 | 0.0533 | 1.05 | 1.03 | 0.892 | 0.81 | 0.0434
NCI-H1944 | 0.481 | 0.695 | 0.492 | 0.551 | 0.494 | 0.837 | 0.931 | 0.865 | 0.655 | 0.29 | 0.715 | 0.697 | 0.763 | 0.548 | 0.167 | 0.807 | 0.79 | 0.764 | 0.84 | 0.154
NCI-H1975 | 0.744 | 0.654 |  | 0.728 | 0.756 | 0.933 | 0.923 | 0.894 | 0.203 | 0.149 | 0.192 | 0.122 | 0.158 | 0.138 | 0.177 | 0.696 | 0.615 | 0.163 | 0.127 | 0.108
